The values that follow come from PubChem BioAssay (NCI).

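Five compound concentrations were applied to cells in 96-well plates for 48 hours; endpoints were derived by simple linear interpolation of the resulting dose-response curve. The concentration for 50% growth inhibition is given as GI50. TGI denotes the concentration required for complete inhibition of growth.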

Among the test systems are MCF7 breast; HOP-62 NSCLC; SW-620 colon; CAKI-1 renal; KM12 colon; T-47D breast; PC-3 prostate; 786-0 renal; BT-549 breast; M14 melanoma.
Common to all, as to experiment: growth of human tumour cells (NCI), 48 h

For the compound `COc1ccc2cc(-c3c(-c4ccncc4)nc(-c4ccc(S(C)=O)cc4C)n3C)ccc2c1` (stereo not given), the GI50 in the assay on MCF7 breast is 14.1 µM; in the assay with HOP-62 NSCLC, 24.7 µM; in the assay with SW-620 colon it was above 25 µM; with CAKI-1 renal, 6.98 µM; with KM12 colon it was above 22.3 µM; in the assay on T-47D breast, 8.78 µM. For the same compound, the GI50 is 15.9 µM with PC-3 prostate, 24.3 µM with 786-0 renal, above 21.9 µM with BT-549 breast and above 21.6 µM in the assay with M14 melanoma. Also, the TGI with MCF7 breast, with HOP-62 NSCLC, in the assay with SW-620 colon, with CAKI-1 renal, with KM12 colon and with T-47D breast was above 25 µM each time. The TGI in the assay with PC-3 prostate, with 786-0 renal, with BT-549 breast and with M14 melanoma was above 25 µM throughout.
In the case of `CC(C)(CO)N=Cc1ccccc1[O-].CC(C)(CO)N=Cc1ccccc1[O-].[Co+2]`, the GI50 was 27.3 µM in the assay on MCF7 breast; above 100 µM in the assay with HOP-62 NSCLC; 72.4 µM with SW-620 colon; 53.7 µM in the assay on CAKI-1 renal; above 97.8 µM with KM12 colon; 10.1 µM in the assay on T-47D breast. In addition, the GI50 is 49.3 µM with PC-3 prostate, 42.1 µM with 786-0 renal, 14.5 µM in the assay with BT-549 breast and 38.7 µM with M14 melanoma. Moreover, the TGI in the assay with MCF7 breast, in the assay on HOP-62 NSCLC, with SW-620 colon, in the assay on CAKI-1 renal, in the assay on KM12 colon and with T-47D breast was above 100 µM each time. In addition, the TGI was above 100 µM in the assay on PC-3 prostate, above 100 µM in the assay with 786-0 renal, above 63.4 µM in the assay with BT-549 breast and above 100 µM with M14 melanoma.
For `COC(=O)[C@H](Cc1ccccc1)NC(=O)c1csc([C@@H](C[C@H](C(C)C)N(C)C(=O)[C@@H](NC(=O)[C@H]2CCCN2C)C2CC2)OC(C)=O)n1`, the GI50 was 0.124 µM with MCF7 breast; 0.831 µM in the assay on HOP-62 NSCLC; 0.235 µM with SW-620 colon; 0.793 µM in the assay with CAKI-1 renal; 0.45 µM in the assay with KM12 colon; above 7.36 µM in the assay with T-47D breast. Besides, the GI50 was 0.572 µM in the assay with PC-3 prostate, 0.746 µM in the assay on 786-0 renal, 0.248 µM in the assay on BT-549 breast and 0.281 µM in the assay on M14 melanoma. For the same compound, the TGI in the assay with MCF7 breast, with HOP-62 NSCLC, in the assay with SW-620 colon, in the assay on CAKI-1 renal, in the assay with KM12 colon and in the assay with T-47D breast was above 33.3 µM each time. Besides, the TGI in the assay on PC-3 prostate was above 33.3 µM; with 786-0 renal it was above 33.3 µM; with BT-549 breast, 7.85 µM; in the assay with M14 melanoma it was above 33.3 µM.
As for `COc1cc([C@H]2c3[nH]c4ccccc4c3C[C@H]3COC(=O)N32)cc(OC)c1O`, the TGI with MCF7 breast is 37.1 µM; with HOP-62 NSCLC it was 34.2 µM; in the assay with SW-620 colon, above 70 µM; in the assay on CAKI-1 renal, 46.8 µM; in the assay with KM12 colon, 20.7 µM; in the assay with T-47D breast, above 100 µM. Besides, the TGI with PC-3 prostate was above 100 µM; in the assay with 786-0 renal it was 10.7 µM; with BT-549 breast it was above 100 µM; in the assay with M14 melanoma it was above 100 µM.
In the case of `Cc1cc(=O)oc2cc(OCCn3c(C)nn(-c4ccc(Cl)cc4)c3=O)ccc12`, the GI50 was 2.7 µM in the assay on MCF7 breast; 3.05 µM with HOP-62 NSCLC; 2.2 µM in the assay on SW-620 colon; above 100 µM in the assay with CAKI-1 renal; 1.66 µM in the assay on KM12 colon; 7.55 µM in the assay on T-47D breast. Besides, the GI50 in the assay on PC-3 prostate is 8.13 µM; in the assay with 786-0 renal, 5.7 µM; in the assay with BT-549 breast it was 16.5 µM; in the assay with M14 melanoma, 2.36 µM. Also, the TGI in the assay with MCF7 breast is above 100 µM; with HOP-62 NSCLC, 32.9 µM; with SW-620 colon, above 100 µM; in the assay with CAKI-1 renal, above 100 µM; in the assay on KM12 colon it was above 100 µM; with T-47D breast it was above 100 µM. In addition, the TGI is above 100 µM with PC-3 prostate, above 100 µM in the assay on 786-0 renal, 99.4 µM in the assay on BT-549 breast and above 100 µM with M14 melanoma.
`COc1ccc2c(c1)nc1n2C(c2ccc(F)cc2)SC1` (stereo not given): the GI50 in the assay with MCF7 breast was 18.5 µM; in the assay with HOP-62 NSCLC it was 79.7 µM; in the assay with SW-620 colon, 32.3 µM; in the assay on CAKI-1 renal, 26.2 µM; in the assay with KM12 colon it was 23.3 µM; in the assay with T-47D breast, 14.4 µM. The GI50 was 27.1 µM in the assay on PC-3 prostate, 60.8 µM in the assay on 786-0 renal, 17.1 µM in the assay with BT-549 breast and 26.3 µM in the assay with M14 melanoma. Further, the TGI with MCF7 breast is above 100 µM; with HOP-62 NSCLC it was above 100 µM; in the assay with SW-620 colon, above 100 µM; with CAKI-1 renal, 74.5 µM; in the assay on KM12 colon, 70.2 µM; in the assay on T-47D breast, 51 µM. The TGI with PC-3 prostate was above 100 µM; in the assay on 786-0 renal, above 100 µM; in the assay with BT-549 breast, 42.1 µM; with M14 melanoma it was 83.5 µM.
Turning to `O=C(Cc1ccc(/C=C/C(=O)c2ncc[nH]2)cc1)Nc1ccc(C(F)(F)F)cc1`, the GI50 in the assay on MCF7 breast is 0.851 µM; with HOP-62 NSCLC it was 4.8 µM; in the assay with SW-620 colon, 1.35 µM; with CAKI-1 renal it was 4.43 µM; in the assay with KM12 colon it was 1.11 µM; in the assay on T-47D breast it was 3.97 µM. Also, the GI50 in the assay on PC-3 prostate is 2.81 µM; in the assay with 786-0 renal it was 1.4 µM; with BT-549 breast, 2.11 µM; in the assay with M14 melanoma it was 2.58 µM. The TGI in the assay with MCF7 breast was 4.31 µM; in the assay with HOP-62 NSCLC, 12 µM; in the assay on SW-620 colon it was 5.17 µM; in the assay on CAKI-1 renal it was 9.47 µM; in the assay with KM12 colon, 4.27 µM; in the assay with T-47D breast, 12.3 µM. Also, the TGI was 12.4 µM in the assay with PC-3 prostate, 6.07 µM with 786-0 renal, 8.28 µM with BT-549 breast and 9.25 µM in the assay on M14 melanoma.
